For the assay, the system named is J774A.1 macrophages. The assay can be described thus: Serum-mediated cholesterol efflux (BODIPY-cholesterol). It counts as cell-based. The following applies: compounds 10 µM, 24 h, then serum 6 h; pioglitazone 3 µM positive control.

Entries after “also recorded” stand apart in the source; their conditions may differ.

For `C/C=C/C=C/C(O)=C1/C(=O)C(C)=C(O)[C@@]2(C)O[C@@]3(O)[C@@](C)(O)C(=O)C(C(=O)CC/C=C/C)=C(O)[C@@]3(C)[C@@H]12` [Compound 11, dihydrobisvertinolone], the “cholesterol efflux enhancing activity” value is recorded as “significant cholesterol efflux enhancing activity; also recorded: exhibited cholesterol efflux enhancing activity”.

The record behind these values is PMC8997241, “Structurally Various Sorbicillinoids From an Endophytic Fungus Acremonium citrinum SS-g13” (Frontiers in Microbiology, 2022).
